The text below walks through data of paper PMC9147790, “Synthesis of Coumarin Derivatives: A New Class of Coumarin-Based G Protein-Coupled Receptor Activators and Inhibitors” (Polymers, 2022).

Read-outs that look alike come from different tables or passages of the source.

For assay [1], the system named is mouse GPCRs. Briefly: DAS-ELISA evaluation of coumarin derivatives on GPCRs (inhibition/activation). Particulars: for IC50: concentration achieving 50% inhibition of the GPCRs' standard at 10 ng/L; for IC50 / EC50: mean of two independent experiments ± SD; for EC50: concentration achieving 50% activation of the GPCRs' standard at 10 ng/L; for IC50(nM) (% INHIBITION): % inhibition (inhibition rate): value in parentheses beside the > IC50 bound, daphnetin: at 10 ng/L; for EC50(nM) (% Activation): % Activation: value in parentheses beside the > EC50 bound; for GPCR activation potency (in words) / GPCRs-inhibitory activity (in words): DAS-ELISA. The assay is classed as biochemical. The procedure:
All chemicals and reagents used in the study were commercially available and used as received. Thin-layer chromatography (TLC) and column chromatography (300–400 mesh) were achieved using instruments from Qingdao Makall Group Co., Ltd. (Qingdao, China). ^1H NMR and ^13C NMR spectra were recorded on a Bruker DRX-500 (^1H/^13C, 500 MHz/125 MHz) spectrometer (Bruker, Bremerhaven, Germany) or a JEOL 400YH (^1H/^13C, 400 MHz/100 MHz) and chemical shifts were given in δ with the TMS as an internal reference. The ESI-MS spectroscopy was measured on an Advantage Max LCQ Thermo-Finnigan mass spectrometer. The ELISA kit was purchased from Shanghai Fusheng Industry Co., Ltd. (Shanghai, China), and the standard in the kit was Class B GPCRs.
All the synthesized coumarin derivatives were dissolved in 500 μL of DMSO, and then diluted to 1 mL by distilled water to get 1 mg/mL of stock solution. Finally, the stock solution was diluted to 1000 μg/L, 10 μg/L, 0.1 μg/L, and 0.001 μg/L in turn and stored in a refrigerator at 4 ℃ for reserve.
The inhibitory/activation activities of all of the synthesized coumarin derivatives on GPCRs were evaluated through incubation using mouse GPCRs provided by the ELISA kit (Shanghai Fusheng Industrial Co., Ltd. Shanghai, China). Other components of the kit included a water solution (30 times concentrated), a HRP conjunction reagent, a sample diluent, a standard diluent, standard, a chromogenic reagent A, a chromogenic reagent B, and a stop solution.
The 15 μL of stock solution and 15 μL of diluted standard solution were thoroughly mixed and incubated at 37 ℃ for 10 mins to prepare a reaction solution. The assay was conducted according to the kit protocol, that is, by adding the 25 μL of reaction solution to a 96-well enzyme-labeled plate containing solid phase anti-GPCRs antibodies. Then the plate was incubated for 30 mins at 37 ℃. Then, 25 μL of Chromogener A and 25 μL of Chromogener B were then added to react. Finally, 25 μL of the termination solution was added to each well to terminate the reaction and the mixture was fully mixed. Derivatives were tested in four different concentrations: 10 ng/L, 1 ng/L, […], and 10 μg/L. A diluent was prepared, dissolved and diluted with the other components of the kit according to the instructions in the kit, and a termination solution was added to the reaction. Then, the OD value was obtained by a microplate reader in 15 mins. All the derivatives were set into two independent experimental groups, and the inhibition of GCPRs, which was expressed as a percentage, was based on these groups.
Inhibition rate = [OD(positive) − OD(test compound)]/[OD(positive) − OD(blank)] ∗ 100%.
IC50/EC50 were obtained from Modified Karber formula [66] as the following: lgρ=Xm−IP−3−Pm−Pn/4
ρ: Concentration of compounds; Xm: Maximum dose; I = (Minimum inhibition rate)/Adjacent dose.
P: Sum of inhibition rates; Pm: Maximum inhibition rate; Pn: Minimum inhibition rate.
All values are the mean of two independent experiments ± SD.
A general note: An ELISA detects its analyte on a solid surface through an enzyme-linked reagent.

Assay [2] has as its system mouse GPCRs. The arrangement: method as in PMID 33142412. Particulars: earlier work shown in Figure 2; cited from earlier work.

For the compound “4-Benzyl-7-ethoxy-4-methyl-2H-chromen-2-one [Derivative 23]”, the IC50 in the assay with mouse GPCRs [1] is 0.76 ± 0.7 nM.

On to `Cc1cc(=O)oc2c(O)c(O)ccc12` [4a, reference compound], for which the EC50 in the assay with mouse GPCRs [1] was found to be 2.65 ± 0.25 nM.

As to `O=c1ccc2ccc(O)c(O)c2o1` [Daphnetin, daphnetin, reference compound], in the assay on mouse GPCRs [1], the IC50 is greater than 10 nM and the “IC50(nM) (% INHIBITION): % inhibition (inhibition rate)” value is 49.43%. For the same compound, in the assay on mouse GPCRs [2], the EC50 was greater than 10 nM and the “Inhibition rate (in Figure 2)” value is given as 49.43%.

Turning to `O=c1cc(-c2ccc(F)cc2)c2ccc(O)c(O)c2o1` [Derivative 1, 4-(4-Fluorophenyl)-7,8-dihydroxy-2 H-chromen-2-one], the EC50 with mouse GPCRs [1] was 0.56 ± 0.02 nM.

On to `O=c1cc(C(F)F)c2ccc(O)c(O)c2o1` [Derivative 2, 4-(Difluoromethyl)-7,8-dihydroxy-2H-chromen-2-one], for which, in the assay on mouse GPCRs [1], the EC50 was greater than 43.8 nM and the “EC50(nM) (% Activation): % Activation” value worked out at 39.82%.

Take `O=c1cc(-c2ccccc2)c2ccc(O)c(O)c2o1` [Derivative 3, 7,8-Dihydroxy-4-phenyl-2H-chromen-2-one]: in the assay on mouse GPCRs [1], the EC50 was greater than 43.8 nM and the “EC50(nM) (% Activation): % Activation” value is recorded as 35.75%.

Consider `CCc1cc(=O)oc2c(O)c(O)ccc12` [Derivative 4, 4-Ethyl-7,8-dihydroxy-2H-chromen-2-one], for which, in the assay with mouse GPCRs [1], the “GPCR activation potency (in words)” value was “completely lost their GPCRs-activation potency” and half-maximal inhibition (IC50) was put at 0.15 ± 0.01 nM.

Turning to `CCCc1cc(=O)oc2c(O)c(O)ccc12` [Derivative 5, 7,8-Dihydroxy-4-propyl-2H-chromen-2-one], in the assay on mouse GPCRs [1], the “GPCR activation potency (in words)” value is listed as “completely lost their GPCRs-activation potency” and the IC50 was 3.77 ± 0.58 nM.

For the compound `CC(=O)Oc1ccc2c(CCl)cc(=O)oc2c1OC(C)=O` [Derivative 7, 4-(Chloromethyl)-2-oxo-2H-chromene-7,8-diyl diacetate], in the assay with mouse GPCRs [1], the “GPCR activation potency (in words)” value is “no GPCR activation potency” and the IC50 came out at 0.02 ± 0.01 nM.

Regarding `CCC(=O)Oc1ccc2c(CCl)cc(=O)oc2c1OC(=O)CC` [Derivative 8, 4-(Chloromethyl)-2-oxo-2H-chromene-7,8-diyl dipropionate], in the assay on mouse GPCRs [1], the “GPCR activation potency (in words)” value was “no GPCR activation potency” and the IC50 stood at 6.86 ± 0.04 nM.

In the case of `Cc1cc(=O)oc2cc(O)ccc12` [Derivative 9, 7-Hydroxy-4-methyl-2H-chromen-2-one], in the assay with mouse GPCRs [1], the “GPCRs-inhibitory activity (in words)” value was “no GPCRs-inhibitory activity”, the EC50 came to 1.25 ± 0.89 nM and the IC50 was found to be 1.25 nM.

Turning to `COc1cc(=O)oc2cc(O)ccc12` [Derivative 10, 7-Hydroxy-4-methoxy-2H-chromen-2-one], in the assay with mouse GPCRs [1], the IC50 was greater than 48.5 nM and the “IC50(nM) (% INHIBITION): % inhibition (inhibition rate)” value worked out at 33.58%.

The compound `CCc1c(C)c2ccc(O)cc2oc1=O` [Derivative 11, 3-Ethyl-7-hydroxy-4-methyl-2H-chromen-2-one] returned an EC50 with mouse GPCRs [1] of 1.28 ± 1.07 nM.

Take `Cc1c(C)c2ccc(O)cc2oc1=O` [Derivative 12, 7-Hydroxy-3,4-dimethyl-2H-chromen-2-one]: the EC50 with mouse GPCRs [1] was 1.07 ± 0.33 nM.

The compound `O=c1cc(C(F)(F)F)c2ccc(O)cc2o1` [Derivative 13, 7-Hydroxy-4-(trifluoromethyl)-2H-chromen-2-one] returned an IC50 with mouse GPCRs [1] of 7.75 ± 7.23 nM.

In the assay on mouse GPCRs [1], `Cc1c(Cl)c(=O)oc2cc(O)ccc12` [Derivative 14, 3-Chloro-7-hydroxy-4-methyl-2H-chromen-2-one] had an EC50 of 0.03 ± 0.02 nM.

In the assay with mouse GPCRs [1], `Cc1c(Cc2ccccc2)c(=O)oc2cc(O)ccc12` [Derivative 15, 3-Benzyl-7-hydroxy-4-methyl-2H-chromen-2-one] had an EC50 of 3.6 ± 0.11 nM and an IC50 of 3.6 nM.

`Cc1c(F)c(=O)oc2cc(O)ccc12` [Derivative 16, 3-Fluoro-7-hydroxy-4-methyl-2H-chromen-2-one] showed an EC50 in the assay on mouse GPCRs [1] of 0.24 ± 0.21 nM.

In turn, `Cc1c(C#N)c(=O)oc2cc(O)ccc12` [Derivative 17, 7-Hydroxy-4-methyl-2-oxo-2H-chromene-3-carbonitrile] came in with an EC50 with mouse GPCRs [1] of 0.03 ± 0.02 nM.

Take `CCc1cc(=O)oc2cc(O)ccc12` [Derivative 18, 4-Ethyl-7-hydroxy-2H-chromen-2-one]: in the assay with mouse GPCRs [1], the “GPCRs-inhibitory activity (in words)” value was “no GPCRs-inhibitory activity” and the EC50 stood at 0.03 ± 0.01 nM.

On to `O=c1cc(CCl)c2ccc(O)cc2o1` [Derivative 19, 4-(Chloromethyl)-7-hydroxy-2H-chromen-2-one], for which, in the assay with mouse GPCRs [1], the “GPCRs-inhibitory activity (in words)” value is “no GPCRs-inhibitory activity” and the EC50 is 4.22 ± 3.49 nM.

For the compound `O=c1cc(-c2ccccc2)c2ccc(O)cc2o1` [Derivative 20, 7-Hydroxy-4-phenyl-2H-chromen-2-one], in the assay on mouse GPCRs [1], the EC50 was greater than 42 nM and the “EC50(nM) (% Activation): % Activation” value is given as 34.41%.

Take `Cc1cc(=O)oc2cc(Oc3ccnc(Cl)n3)ccc12` [Derivative 21, 7–((2–chloropyrimidin–4–yl)oxy)–4–methyl–2H–chromen–2–one]: in the assay on mouse GPCRs [1], the EC50 came to 0.02 ± 0.01 nM and half-maximal inhibition (IC50) required 0.02 nM.

Regarding `COc1ccc2c(C)c(Cc3ccccc3)c(=O)oc2c1` [Derivative 22, 3-Benzyl-7-methoxy-4-methyl-2H-chromen-2-one], 9.67 ± 2.59 nM corresponded to half-maximal inhibition in the assay with mouse GPCRs [1] (IC50).

Regarding `CC(=O)Oc1ccc2c(C)c(Cc3ccccc3)c(=O)oc2c1` [Derivative 24, 3-Benzyl-4-methyl-2-oxo-2H-chromen-7-yl acetate], in the assay on mouse GPCRs [1], the EC50 is greater than 35.7 nM and the “EC50(nM) (% Activation): % Activation” value came to 32.82%.

With `CCC(=O)Oc1ccc2c(C)c(Cc3ccccc3)c(=O)oc2c1` [Derivative 25, 3-Benzyl-4-methyl-2-oxo-2H-chromen-7-yl propionate], in the assay on mouse GPCRs [1], the EC50 was found to be 12 ± 9.47 nM.

By IC50 is commonly meant the midpoint of a concentration-inhibition curve. High values mean weaker potency in that assay, low ones greater potency in that assay.
